Data set [1] can be described thus: Solubility (physicochemical properties). Conditions: qualitative, in various solvents. From the text: The physicochemical properties of UCK14 compounds are shown below.
In data set [2] the test system is human pancreatic carcinoma PSN-1 cells. As to the kind of experiment: Growth inhibition against human pancreatic carcinoma PSN-1 cells (MTT). The format is cell-based. The settings on record: 72 hours culture, read-out: IC50 (50% growth inhibitory concentration) PSN-1. From the text:
(§1) Growth inhibition against human epidermoid carcinoma A431 cells and human pancreatic carcinoma PSN-1 cells
(§2) Human epidermoid carcinoma A431 cells (ATCC CRL 1555) were suspended in Dulbecco's modified Eagle's medium (Nissui Pharmaceutical Co., Ltd.) supplemented with 10% fetal bovine serum (Filtron), and human pancreatic carcinoma PSN-1 cells [Biochem. Biophys. Res. Commun. 140, 167 (1986)] were suspended in RPMI-1640 medium (Gibco BRL) supplemented with 5% fetal bovine serum (Filtron). Each cell suspension was put into wells of a 96-well microtiter plate (#167008, Nunc) in an amount of 3×10^3 cells/well, followed by preincubation in a 5% CO2 -incubator at 37° C. for 24 hours. Then, 5mM solutions of UCK14A1, UCK14A2 and UCK14C were diluted stepwise and the resulting solutions were respectively added to the wells in an amount of 50 μl/well (highest final concentration: 1 mM). The cells were cultured in the 5% CO2 -incubator at 37° C. for 72 hours. Five hours before the end of culturing, 50 μl of a solution of MTT [3-(4,5-dimethylthiazo-2-yl)-2,5-diphenyltetrazolium bromide (Sigma Chemical Co., Ltd.)] in the medium (final concentration: 1 mg/ml) was added to each well. After the completion of culturing, DMSO was added to the wells in an amount of 150 μl/well, followed by vigorous stirring with a plate mixer to completely dissolve crystals of MTT-formazan. […]

Data set [3] deals with human epidermoid carcinoma A431 cells. The data set is described as follows: Growth inhibition against human epidermoid carcinoma A431 cells (MTT). The format is cell-based. The settings on record: 72 hours culture, read-out: IC50 (50% growth inhibitory concentration) A431.
Source text: as §1, §2

pIC50: −log10 of the molar value.

As to `CCC(C)C1C(=O)OC1C(=O)NC1CC1CC(NC(=O)C(C)N)C(=O)O` (stereo not drawn) [UCK14A1], in data set [1], the Solubility entry was “Soluble in water, methanol and dimethylsulfoxide (DMSO); insoluble in hexane, chloroform and ethyl acetate”. Besides, the pIC50 in data set [2] is 4.79; in data set [3], 4.60.

The values above are taken from patent publication US5663298A, “UCK14 compounds” (Kyowa Hakko Kogyo Co., Ltd., priority 1995, dated 1997).
